Reference: patent US20110112135A1, “Imidazo [1,2-A] Pyridine Compounds” (priority 2007, published 2011)
pIC50: −log10 of the molar value.

How the values were obtained:
human LXRα = biological target: T1, human LXRα (Homo sapiens, UniProt Q13133); experiment: Ligand-binding test procedure for human LXRα (3H T0901317 tracer, flash plates); settings: biotinylated hLXRα from E. coli extract; tracer 3H T0901317
T1 construct: biotin (biotinylated); made in house; host or cells: E. coli (crude extract)
T1 sequence (Q13133 1-447): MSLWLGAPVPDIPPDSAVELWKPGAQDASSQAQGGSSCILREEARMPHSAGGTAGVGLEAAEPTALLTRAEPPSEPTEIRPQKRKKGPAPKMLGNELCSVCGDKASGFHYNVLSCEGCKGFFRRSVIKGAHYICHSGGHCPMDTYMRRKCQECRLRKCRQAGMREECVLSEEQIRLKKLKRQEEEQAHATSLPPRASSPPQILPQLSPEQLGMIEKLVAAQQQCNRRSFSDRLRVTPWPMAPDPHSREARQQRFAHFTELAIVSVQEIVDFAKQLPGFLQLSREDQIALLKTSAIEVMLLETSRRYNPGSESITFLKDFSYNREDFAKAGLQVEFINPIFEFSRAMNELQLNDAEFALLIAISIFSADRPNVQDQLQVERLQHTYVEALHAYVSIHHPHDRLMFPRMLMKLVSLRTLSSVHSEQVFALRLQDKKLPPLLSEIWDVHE
Procedure: II. Ligand-Binding Test Procedure for Human LXRα.
Receptor source: E. coli extract from cells expressing biotinylated hLXRα. Extract was made in a similar buffer as above, but with 50 mM TRIS.
(§1) Washed streptavidin and coated flash plates with wash buffer. Diluted receptor extract to give Bmax ˜4000 cpm and add to the wells. Wrapped the plates in aluminum foil and stored them at +4° C. over night.
(§2) Made a dilution series in DMSO of the test ligands. Made a 5 nM solution of the radioactive tracer in buffer. Mixed 250 μl diluted tracer with 5 μl of the test ligand from each concentration of the dilution series. Washed the receptor-coated flash plates. Added 200 μl per well of the ligand/radiolabel mixture to the receptor-coated flash plates. Wrapped the plates in aluminum foil and incubate at +4° C. over night.
(§3) Aspirated wells, and wash the flashed plates. Sealed the plate. Measured the remaining radioactivity in the plate.

human LXRβ = biological target: T2, human LXRβ (Homo sapiens, UniProt P55055); experiment: Ligand-binding test procedure for human LXRβ (3H T0901317 tracer, flash plates); settings: biotinylated hLXRβ from E. coli extract; tracer 3H T0901317
T2 construct: biotin (biotinylated); made in house; host or cells: E. coli (crude extract)
T2 sequence (P55055 1-460): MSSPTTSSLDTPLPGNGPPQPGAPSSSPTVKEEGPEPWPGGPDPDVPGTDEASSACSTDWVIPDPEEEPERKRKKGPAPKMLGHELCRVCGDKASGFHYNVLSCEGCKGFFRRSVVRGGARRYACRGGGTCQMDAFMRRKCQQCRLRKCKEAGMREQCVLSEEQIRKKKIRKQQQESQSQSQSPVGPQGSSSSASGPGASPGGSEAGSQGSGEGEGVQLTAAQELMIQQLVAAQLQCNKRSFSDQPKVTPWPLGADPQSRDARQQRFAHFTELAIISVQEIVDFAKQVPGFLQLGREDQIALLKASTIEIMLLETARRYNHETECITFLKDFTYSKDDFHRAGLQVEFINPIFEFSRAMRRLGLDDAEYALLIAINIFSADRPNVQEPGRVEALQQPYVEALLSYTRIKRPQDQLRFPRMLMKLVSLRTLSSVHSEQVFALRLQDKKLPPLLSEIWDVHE
Procedure: I. Ligand-Binding Test Procedure for Human LXRβ.
Receptor source: E. coli extract from cells expressing biotinylated hLXRβ. Extract was made in a similar buffer as above, but with 50 mM TRIS.
as §1, §2, §3

| pIC50 (human LXRα) | pIC50 (human LXRβ) | Compound |
| --- | --- | --- |
| 4.39 | 5.51 | CCc1nc2c(C#N)cccn2c1-c1cccc(OCc2cccc(S(C)(=O)=O)c2)c1 [Example 54, 2-ethyl-3-(3-{[3-(methylsulfonyl)benzyl]oxy}phenyl)imidazo[1,2-a]pyridine-8-carbonitrile] |
| 4.55 | 5.96 | CC(C)c1nc2c(C#N)cccn2c1-c1cccc(OCc2cccc(S(C)(=O)=O)c2)c1 [Example 55, 2-isopropyl-3-(3-{[3-(methylsulfonyl)benzyl]oxy}phenyl)imidazo[1,2-a]pyridine-8-carbonitrile] |
| 4.44 | 5.38 | CC(C)c1nc2c(C(F)(F)F)cccn2c1-c1cccc(OCc2ccc(S(C)(=O)=O)cc2)c1 [Example 56, 2-isopropyl-3-(3-{[4-(methylsulfonyl)benzyl]oxy}phenyl)-8-(trifluoromethyl)imidazo[1,2-a]pyridine] |
| < 6.00 | 5.07 | CC(C)c1nc2c(Cl)cccn2c1-c1cccc(OCc2ccc(S(C)(=O)=O)cc2)c1 [Example 57, 8-chloro-2-isopropyl-3-(3-{[4-(methylsulfonyl)benzyl]oxy}phenyl)imidazo[1,2-a]pyridine] |
| < 6.00 | < 6.00 | CCc1nc2c(C#N)cccn2c1-c1cccc(OCc2ccc(S(C)(=O)=O)cc2)c1 [Example 58, 2-ethyl-3-(3-{[4-(methylsulfonyl)benzyl]oxy}phenyl)imidazo[1,2-a]pyridine-8-carbonitrile] |
| < 6.00 | < 6.00 | CC(C)c1nc2c(C#N)cccn2c1-c1cccc(OCc2ccc(S(C)(=O)=O)cc2)c1 [Example 59, 2-isopropyl-3-(3-{[4-(methylsulfonyl)benzyl]oxy}phenyl)imidazo[1,2-a]pyridine-8-carbonitrile] |
| 5.55 | 7.04 | CNCCCS(=O)(=O)c1cccc(Oc2cccc(-c3c(C(C)C)nc4c(C(F)(F)F)cccn34)c2)c1 [Example 62, 3-[(3-{3-[2-isopropyl-8-(trifluoromethyl)imidazo[1,2-a]pyridin-3-yl]phenoxy}phenyl)sulfonyl]-N-methylpropan-1-amine] |
| 5.57 | 6.79 | CCc1nc2c(C#N)cccn2c1-c1cccc(Oc2cccc(S(C)(=O)=O)c2)c1 [Example 69, 2-ethyl-3-{3-[3-(methylsulfonyl)phenoxy]phenyl}imidazo[1,2-a]pyridine-8-carbonitrile] |
| 6.87 | 8.25 | CCS(=O)(=O)c1cccc(Oc2cccc(-c3c(C(C)(C)C)nc4c(C(F)(F)F)cccn34)c2)c1 [Example 76, 2-tert-butyl-3-{3-[3-(ethylsulfonyl)phenoxy]phenyl}-8-(trifluoromethyl)imidazo[1,2-a]pyridine] |
| 6.80 | 8.21 | CC(C)S(=O)(=O)c1cccc(Oc2cccc(-c3c(C(C)(C)C)nc4c(C(F)(F)F)cccn34)c2)c1 [Example 77, 2-tert-butyl-3-{3-[3-(isopropylsulfonyl)phenoxy]phenyl}-8-(trifluoromethyl)imidazo[1,2-a]pyridine] |
| 6.28 | 7.79 | CC(C)S(=O)(=O)c1cccc(Oc2cccc(-c3c(C(C)(C)C)nc4c(C#N)cccn34)c2)c1 [Example 80, 2-tert-butyl-3-{3-[3-(isopropylsulfonyl)phenoxy]phenyl}imidazo[1,2-a]pyridine-8-carbonitrile] |
| 5.62 | 6.82 | CC(C)(C)c1nc2c(C#N)cccn2c1-c1cccc(Oc2cccc(S(=O)(=O)CCCO)c2)c1 [Example 81, 2-tert-butyl-3-(3-{3-[(3-hydroxypropyl)sulfonyl]phenoxy}phenyl)imidazo[1,2-a]pyridine-8-carbonitrile] |
| 5.56 | 7.08 | CS(=O)(=O)c1cccc(Oc2cccc(-c3c(Cl)nc4c(C(F)(F)F)cccn34)c2)c1 [Example 85, 2-chloro-3-{3-[3-(methylsulfonyl)phenoxy]phenyl}-8-(trifluoromethyl)imidazo[1,2-a]pyridine] |
